Results published in patent publication US12533337B2, “Pharmaceutical drug containing heterocyclidene acetamide derivative” (SENJU PHARMACEUTICAL CO., LTD., priority 2019, dated 2026).
Entries after “also recorded” stand apart in the source; their conditions may differ.

Key:
Format in all cases: in vivo
[1] = test system: rat scopolamine-induced dry eye model; assay: Observation of superficial punctate keratitis (SPK) in a rat scopolamine-induced dry eye model
Protocol: (§1) 1.0 w/v % compound (1) suspension eye drop was administered for an extended period using a rat scopolamine-induced dry eye model prepared by the same method as Test Example 2. The model was treated under a low humidity environment (20% RH or less) only when measuring the number of blinks.
(§2) 5 μL of 1.0 w/v % compound (1) suspension eye drop and vehicle eye drop was administered to the right eye 4 times a day by using a micropipette.
(§3) An effect of improving SPK (SPK score) was evaluated by the same method as Test Example 1 on day 8 of sample administration. The number of blinks of the right eye was measured for 5 minutes under a low humidity environment after 4 hours from the initial administration on day 7 of administration (2 weeks post-surgery) by the same method as Text Example 2.

[2] = test system: Vi/Vc zone of the medulla oblongata; assay: Measurement of c-Fos positive cell count in the Vi/Vc zone of the medulla oblongata, rat scopolamine-induced dry eye model; details: 0.3 w/v % suspension eye drop
Protocol: 5 μL of eye drop was administered to the right eye using a micropipette, 4 times a day with an interval of 2 hours or longer. A vehicle eye drop was administered to the Sham group.
After a rat was allowed to bleed to death by perfusion of saline, Zamboni's Fixative was perfused to extract the medulla oblongata. After sectioning the extracted medulla oblongata, the medulla oblongata was stained by immunohistochemical staining by using an anti-c-Fos antibody (product name: Rabbit Anti-Human c-Fos Polyclonal Antibody, sc-52, Santa Cruz Biotechnology, Inc.).

[3] = test system: rat scopolamine-induced dry eye model; assay: Number of blinks under a low humidity environment in a rat scopolamine-induced dry eye model; details: for number of blinks within 5 minutes / number of blinks within 5 minutes vs vehicle at 0.5 hours: single administration; for number of blinks within 5 minutes: 0.5 hours after
Protocol: Compound (1) was used as a tested substance. In the same manner as Test Example 1, compound (1) was suspended in a buffer to prepare suspension eye drops with a concentration of compound (1) of 0.1 w/v %, 0.3 w/v %, and 1.0 w/v %. A compound (1)-free vehicle eye drop consisting of only a vehicle was also prepared as a control group.
A rat scopolamine-induced dry eye model was prepared by the same method as Test Example 1.
After about 2.5 hours from implanting an osmotic pump, dry air supplied from an air compressor was sent into an experiment chamber (SJ-1500N, Natsume Seisakusho) to create a low humidity environment (20% RH or lower).
5 μL of a vehicle eye drop or 0.1 w/v %, 0.3 w/v %, or 1.0 w/v % compound (1) suspension eye drop was administered once to the right eye using a micropipette, 0.5 hours before measuring the number of blinks.
After 8 days or more from starting raising the rats in a low humidity environment, the rats were taken out from a breeding cage. The animals were placed in a cage comprised of chain link fencing on all sides (behavior measurement environment cage) to facilitate measurement of the number of blinks. After acclimation for 0.5 hours under a normal environment, the behavior measurement environment cage was transferred to an experiment chamber, and the number of blinks of the right eye of rats was measured for 5 minutes under a low humidity environment. A test was conducted in four separate phases using the same animals after a drug withdrawal period of 2 days or more (crossover test).
By using the same evaluation method as Text Example 2, the sustainability of an effect of improving a subjective symptom was examined.
as §1, §2, §3

With `O=C(/C=C1\CCOc2cc(C(F)(F)F)ccc21)Nc1cccc2c1C[C@H](O)CC2` [compound (1), (E)-2-(7-trifluoromethylchroman-4-ylidene)-N-((7R)-7-hydroxy-5,6,7,8-tetrahydronaphthalen-1-yl)acetamide] the “SPK score compared to a vehicle eye drop” value ([1]; 0.3 w/v % suspension eye drop, after 7 days from administration (15 days post-surgery)) was “significantly reduced”, the “SPK score effect compared to a vehicle eye drop” value ([1]; 0.3 w/v % suspension eye drop, after 14 days from administration (22 days post-surgery)) was “sustained” and the “SPK score compared to a vehicle eye drop” value ([1]; 1.0 w/v % suspension eye drop, 4 times a day, 8 days of repeated administration (Example 4)) was “significantly reduced”. The “c-Fos positive cell count in the Vi/Vc zone of the medulla oblongata compared to a vehicle eye drop” value ([2]; 14 days of administration) was “reduced”, the “c-Fos positive cell count” value ([2]; SCOP model, 5 μL right eye 4 times a day for 14 days, Vi/Vc zone, 22 days post-surgery) was 8.8 ± 3.8 cells/section and the “number of blinks within 5 minutes” value ([3]; 0.1 w/v % suspension eye drop, low humidity) was “reduced”. The “number of blinks within 5 minutes” value ([3]; 0.3 w/v % suspension eye drop, low humidity) was “significant effect”, the “number of blinks within 5 minutes compared to a vehicle eye drop” value ([3]; 1.0 w/v % suspension eye drop, repeated administration 4 times a day, 4 hours after initial administration on day 7, low humidity (Example 4)) was “reduced” and the “number of blinks within 5 minutes” value ([3]; 1.0 w/v % suspension eye drop, low humidity (Test Example 2)) was “significant effect”. The “number of blinks within 5 minutes vs vehicle at 0.5 hours” value (from here on “number … vs vehicle at 0.5 hours”) ([3]; 1.0 w/v % suspension eye drop, after 0.5 hours (Example 3)) was “significantly reduced; also recorded: reduced significantly”, the “number … vs vehicle at 0.5 hours” value ([3]; 1.0 w/v % suspension eye drop, after 4 hours (Example 3)) was “significantly reduced; also recorded: reduced significantly” and the “number … vs vehicle at 0.5 hours” value ([3]; 1.0 w/v % suspension eye drop, after 8 hours (Example 3)) was “reduced”.
